pEC50: −log10 of the molar value.
How the values were obtained:
hERG channel = target: T1, hERG channel (Homo sapiens, UniProt Q12809); test: In vitro hERG (human ether a-go-go gene) assay; type: cell-based
T1 construct: expressed in transfected cells

[1] = rat, in vivo
[2] = system: guinea pig purkinje fibers
kappa opioid receptor = kappa opioid receptor (Homo sapiens, UniProt P41145); test: In vitro kappa-opioid receptor functional assay ([35S]GTPγS); type: biochemical
Sequence of kappa opioid receptor (P41145 whole entry): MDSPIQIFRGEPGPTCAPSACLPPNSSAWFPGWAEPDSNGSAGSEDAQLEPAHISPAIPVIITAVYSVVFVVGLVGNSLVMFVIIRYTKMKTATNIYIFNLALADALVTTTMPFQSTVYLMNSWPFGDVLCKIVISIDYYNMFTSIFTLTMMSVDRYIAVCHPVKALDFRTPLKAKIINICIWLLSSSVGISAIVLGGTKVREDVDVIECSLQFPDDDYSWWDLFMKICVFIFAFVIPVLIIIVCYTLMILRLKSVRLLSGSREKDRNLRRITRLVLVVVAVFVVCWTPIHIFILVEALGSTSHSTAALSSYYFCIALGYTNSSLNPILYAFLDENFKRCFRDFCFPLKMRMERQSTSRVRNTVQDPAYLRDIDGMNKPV

T1 sequence (Q12809 whole entry): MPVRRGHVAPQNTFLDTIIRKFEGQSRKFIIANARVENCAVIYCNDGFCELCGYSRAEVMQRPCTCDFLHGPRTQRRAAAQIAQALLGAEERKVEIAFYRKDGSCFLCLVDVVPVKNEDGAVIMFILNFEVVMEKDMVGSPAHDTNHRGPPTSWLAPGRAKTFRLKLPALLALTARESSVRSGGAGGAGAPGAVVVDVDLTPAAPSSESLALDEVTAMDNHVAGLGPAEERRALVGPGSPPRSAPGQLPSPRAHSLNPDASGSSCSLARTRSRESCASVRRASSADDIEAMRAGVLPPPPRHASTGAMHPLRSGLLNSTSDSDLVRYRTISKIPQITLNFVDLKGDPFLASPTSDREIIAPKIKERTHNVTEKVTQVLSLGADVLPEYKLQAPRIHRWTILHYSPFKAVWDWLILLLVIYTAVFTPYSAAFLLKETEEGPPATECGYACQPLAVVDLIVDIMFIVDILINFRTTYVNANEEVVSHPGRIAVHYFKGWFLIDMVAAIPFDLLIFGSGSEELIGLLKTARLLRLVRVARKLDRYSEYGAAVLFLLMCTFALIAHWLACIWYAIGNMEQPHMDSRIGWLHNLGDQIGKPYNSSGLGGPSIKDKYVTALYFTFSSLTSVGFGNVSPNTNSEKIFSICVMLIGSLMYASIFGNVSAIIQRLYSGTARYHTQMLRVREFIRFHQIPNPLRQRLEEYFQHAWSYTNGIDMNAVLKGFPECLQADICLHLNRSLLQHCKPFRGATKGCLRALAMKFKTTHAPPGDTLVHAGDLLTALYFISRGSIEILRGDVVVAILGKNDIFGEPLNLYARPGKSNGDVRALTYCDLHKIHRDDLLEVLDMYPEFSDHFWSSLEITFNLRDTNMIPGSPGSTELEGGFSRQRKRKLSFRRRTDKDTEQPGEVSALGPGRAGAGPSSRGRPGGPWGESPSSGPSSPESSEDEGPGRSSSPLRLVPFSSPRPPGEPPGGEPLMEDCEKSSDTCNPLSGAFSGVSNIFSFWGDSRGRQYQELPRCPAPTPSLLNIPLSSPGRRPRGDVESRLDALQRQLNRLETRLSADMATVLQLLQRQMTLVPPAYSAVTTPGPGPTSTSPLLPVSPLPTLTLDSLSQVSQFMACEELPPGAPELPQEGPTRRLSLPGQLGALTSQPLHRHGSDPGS

Row | SMILES | cardiovascular side effects (hERG assay) (hERG channel) | abnormal behavioral side effects, such as sedation, hyperactivity and/or hypoactivity [1] | cardiovascular side effects (APD) [2] | pEC50 (kappa opioid receptor)
1 | O=C(O)c1nc2ccccc2n([C@H]2C[C@H]3CCC[C@@H](C2)N3C2CC3CCCC(C3)C2)c1=O (stereo partly drawn) [Compound 362, 4-((endo)-9-((exo)-bicyclo[3.3.1]nonan-3-yl)-9-azabicyclo[3.3.1]nonan-3-yl)-3-oxo-3,4-dihydroquinoxaline-2-carboxylic acid] | reduced cardiovascular side effects | reduced abnormal behavioral side effects | reduced cardiovascular side effects | –
2 | O=C(O)C1CCN(c2nc3ccccc3n([C@H]3C[C@H]4CC[C@@H](C3)N4C3CCCCCCC3)c2=O)CC1 [Compound 99, 1-(4-((endo)-8-cyclooctyl-8-azabicyclo[3.2.1]octan-3-yl)-3-oxo-3,4-dihydroquinoxalin-2-yl)piperidine-4-carboxylic acid] | – | – | – | < 4.00
